Experimental data published in the supplement of paper PMC10307832.

Experiments:
Test in all cases: relative viability (nuclei count vs DMSO), 5 days (fraction); higher = more cells survive
Ruxolitinib + Dasatinib = compound: N#CC[C@H](C1CCCC1)n1cc(-c2ncnc3[nH]ccc23)cn1 [Ruxolitinib] + Cc1nc(Nc2ncc(C(=O)Nc3c(C)cccc3Cl)s2)cc(N2CCN(CCO)CC2)n1 [Dasatinib] (partner 0.075 µM)
Summary of the method: (§1)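 Lung cancer cell lines in 1536-well plates were dosed by pin tool the day after seeding, either with one drug alone or with a fixed anchor-drug dose plus five library-drug doses (not always all listed) in √10 steps. After 5 days, cells were fixed and their nuclei stained in one step (final 0.05% Triton X-100, 1% formaldehyde, 1 ug/ml Hoechst), then counted on 4× images. Relative viability is the nuclei count in treated wells divided by that in vehicle wells. Values are medians of duplicate plates.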

Ruxolitinib + Pemetrexed = compound: N#CC[C@H](C1CCCC1)n1cc(-c2ncnc3[nH]ccc23)cn1 [Ruxolitinib] + Nc1nc2[nH]cc(CCc3ccc(C(=O)N[C@@H](CCC(=O)O)C(=O)O)cc3)c2c(=O)[nH]1 [Pemetrexed] (partner 0.2 µM)
Summary of the method: as §1

Ruxolitinib + Foretinib = compound: N#CC[C@H](C1CCCC1)n1cc(-c2ncnc3[nH]ccc23)cn1 [Ruxolitinib] + COc1cc2c(Oc3ccc(NC(=O)C4(C(=O)Nc5ccc(F)cc5)CC4)cc3F)ccnc2cc1OCCCN1CCOCC1 [Foretinib] (partner 0.25 µM)
Summary of the method: as §1

Ruxolitinib + Navitoclax = compound: N#CC[C@H](C1CCCC1)n1cc(-c2ncnc3[nH]ccc23)cn1 [Ruxolitinib] + CC1(C)CCC(c2ccc(Cl)cc2)=C(CN2CCN(c3ccc(C(=O)NS(=O)(=O)c4ccc(N[C@H](CCN5CCOCC5)CSc5ccccc5)c(S(=O)(=O)C(F)(F)F)c4)cc3)CC2)C1 [Navitoclax] (partner 0.5 µM)
Summary of the method: as §1

Row | Cell Line | relative viability (Ruxolitinib + Dasatinib; first compound 0.253 µM) | relative viability (Ruxolitinib + Dasatinib; first compound 0.8 µM) | relative viability (Ruxolitinib + Dasatinib; first compound 2.53 µM) | relative viability (Ruxolitinib + Dasatinib; first compound 8 µM) | relative viability (Ruxolitinib + Pemetrexed; first compound 0.08 µM) | relative viability (Ruxolitinib + Pemetrexed; first compound 0.253 µM) | relative viability (Ruxolitinib + Pemetrexed; first compound 0.8 µM) | relative viability (Ruxolitinib + Pemetrexed; first compound 2.53 µM) | relative viability (Ruxolitinib + Pemetrexed; first compound 8 µM) | relative viability (Ruxolitinib + Foretinib; first compound 0.253 µM) | relative viability (Ruxolitinib + Foretinib; first compound 0.8 µM) | relative viability (Ruxolitinib + Foretinib; first compound 2.53 µM) | relative viability (Ruxolitinib + Foretinib; first compound 8 µM) | relative viability (Ruxolitinib + Navitoclax; first compound 0.08 µM) | relative viability (Ruxolitinib + Navitoclax; first compound 0.253 µM) | relative viability (Ruxolitinib + Navitoclax; first compound 0.8 µM) | relative viability (Ruxolitinib + Navitoclax; first compound 2.53 µM) | relative viability (Ruxolitinib + Navitoclax; first compound 8 µM) | relative viability (Ruxolitinib + Dasatinib; first compound 0.08 µM) | relative viability (Ruxolitinib + Foretinib; first compound 0.08 µM)
1 | LOU-NH91 | 0.461 | 0.556 | 0.496 | 0.439 | 0.376 | 0.338 | 0.378 | 0.354 | 0.353 | 0.968 | 1.02 | 0.877 | 0.876 | 0.487 | 0.688 | 0.909 | 0.585 | 0.688 | – | –
2 | LU99A | 0.607 | 0.514 | 0.429 | 0.38 | 0.171 | 0.179 | 0.178 | 0.186 | 0.195 | 0.858 | 0.787 | 0.69 | 0.641 | 0.986 | 0.737 | 0.803 | 0.751 | 0.666 | 0.628 | 0.882
3 | LXF-289 | 0.191 | 0.216 | 0.135 | 0.0782 | 0.866 | 0.943 | 0.925 | 0.933 | 0.852 | 0.957 | 0.97 | 0.91 | 0.871 | 0.914 | 0.956 | 0.891 | 0.92 | 0.778 | 0.192 | 0.902
4 | NCI-H23 | 0.679 | 0.8 | 0.597 | 0.517 | 0.779 | 0.787 | 0.755 | 0.708 | 0.564 | 0.969 | 1 | 0.813 | 0.709 | 0.716 | 1.12 | 0.978 | 0.801 | 0.929 | 0.536 | 1.07
5 | NCI-H322M | 0.258 | 0.241 | 0.238 | 0.217 | 0.641 | 0.605 | 0.662 | 0.628 | 0.639 | 0.99 | 1.18 | 1.22 | 1.43 | 1.36 | 1.26 | 1.27 | 1.53 | 1.44 | 0.248 | 0.964
6 | NCI-H441 | 0.432 | 0.698 | 0.396 | 0.672 | 0.259 | 0.252 | 0.273 | 0.231 | 0.261 | 0.915 | 0.997 | 0.787 | 0.855 | 0.817 | 0.501 | 0.659 | 0.45 | 0.623 | 0.507 | 1.07
7 | NCI-H460 | 0.377 | 0.56 | 0.388 | 0.352 | 0.0622 | 0.0628 | 0.0588 | 0.0628 | 0.063 | 0.999 | 1.1 | 0.917 | 0.843 | 1.17 | 1.34 | 1.34 | 1.13 | 0.656 | 0.527 | 1.02
8 | NCI-H520 | – | 0.183 | 0.159 | 0.163 | 0.74 | 0.714 | 0.748 | 0.466 | 0.413 | – | 0.853 | 0.753 | 0.885 | – | 1.01 | 1.38 | 1.22 | 0.782 | 0.239 | 0.703
9 | NCI-H596 | 0.654 | 0.585 | 0.575 | 0.496 | 0.507 | 0.481 | 0.607 | 0.462 | 0.717 | 0.848 | 0.888 | 0.947 | 0.804 | 0.903 | 1.05 | 1 | 1.01 | 1.14 | 0.581 | 0.907
10 | NCI-H647 | 0.155 | 0.182 | 0.0851 | 0.106 | 0.177 | 0.189 | 0.199 | 0.162 | 0.117 | 1.27 | 1.31 | 1.19 | 1.08 | – | 0.995 | 1.27 | 0.855 | 0.989 | 0.207 | 1.08
11 | NCI-H838 | 0.251 | 0.286 | 0.211 | 0.211 | 0.259 | 0.246 | 0.266 | 0.227 | 0.204 | 0.994 | 0.907 | 0.572 | 0.453 | 1.08 | 1.06 | 1.04 | 0.641 | 0.406 | 0.253 | 1.06
12 | NCI-H1355 | 0.532 | 0.579 | 0.522 | 0.36 | 1.1 | 0.977 | 1.09 | 1.02 | 1.01 | 0.967 | 1.12 | 0.87 | 0.893 | 0.924 | 0.925 | 0.992 | 0.807 | 0.701 | 0.711 | 0.85
13 | NCI-H1395 | 0.374 | 0.42 | 0.434 | 0.361 | 0.662 | 0.685 | 0.856 | 0.97 | 0.729 | 0.919 | 1.03 | 0.866 | 0.968 | – | 0.993 | 1.17 | 1.13 | 0.944 | 0.387 | 1.07
14 | NCI-H1437 | 0.363 | 0.354 | 0.458 | 0.236 | 0.469 | 0.292 | 0.304 | 0.319 | 0.254 | 1.51 | 1.41 | 1.35 | 1.17 | 1.12 | 1.14 | 1.14 | 1.05 | 0.884 | 0.294 | 1.37
